Measurements reported in patent US8163935B2, “Fused heterocyclic compounds” (Takeda Pharmaceutical Company Limited, priority 2005, dated 2012).

| SMILES | melting point [°C] |
| --- | --- |
| CCCC(O)(CCC)c1cccc2nc(Nc3c(C)cc(C)cc3C)n(CCO)c12 [Example 73, 4-[1-(2-Hydroxyethyl)-2-(mesitylamino)-1H-benzimidazol-7-yl]heptan-4-ol] | 267 to 270 |
| CCCC(CCC)c1ccc(Cl)c2nc(Nc3cc(C(F)(F)F)ccc3OC)n(C)c12 [Example 112, 4-Chloro-N-[2-methoxy-5-(trifluoromethyl)phenyl]-1-methyl-7-(1-propylbutyl)-1H-benzimidazol-2-amine] | 178 to 180 |
| COc1cc(Cl)cc(C)c1Nc1nc2c(Cl)ccc(C(O)(C(C)C)C(C)C)c2n1C [Example 107, 3-{4-Chloro-2-[(4-chloro-2-methoxy-6-methylphenyl)amino]-1-methyl-1H-benzimidazol-7-yl}-2,4-dimethylpentan-3-ol] | 218 to 219 |
| CCCC(CCC)c1ccc(Cl)c2nc(Nc3ccc(Cl)cc3OC(F)(F)F)n(C)c12 [Example 94, 4-Chloro-N-[4-chloro-2-(trifluoromethoxy)phenyl]-1-methyl-7-(1-propylbutyl)-1H-benzimidazol-2-amine] | 130 to 132 |
| CCC(CC)c1ccc(Cl)c2nc(Nc3ccc(Cl)cc3OC(F)(F)F)n(C)c12 [Example 81, 4-Chloro-N-[4-chloro-2-(trifluoromethoxy)phenyl]-7-(1-ethylpropyl)-1-methyl-1H-benzimidazol-2-amine] | 126 to 128 |
| CCC(CC)c1ccc(Br)c2nc(Nc3c(C)cc(Cl)cc3OC)n(C)c12 [Example 96, 4-Bromo-N-(4-chloro-2-methoxy-6-methylphenyl)-7-(1-ethylpropyl)-1-methyl-1H-benzimidazol-2-amine] | 198 to 199 |
| CCC(CC)c1ccc(Cl)c2nc(Oc3ccc(Cl)cc3Cl)n(C)c12 [Example 98, 4-Chloro-2-(2,4-dichlorophenoxy)-7-(1-ethylpropyl)-1-methyl-1H-benzimidazole] | 87 to 89 |
| CCC(CC)c1ccc(Cl)c2nc(Nc3ccc(Br)cc3Cl)n(C)c12 [Example 85, N-(4-Bromo-2-chlorophenyl)-4-chloro-7-(1-ethylpropyl)-1-methyl-1H-benzimidazol-2-amine] | 127 to 129 |
| CCC(CC)c1ccc(Cl)c2nc(Nc3ccc(C(F)(F)F)cc3Cl)n(C)c12 [Example 95, 4-Chloro-N-[2-chloro-4-(trifluoromethyl)phenyl]-7-(1-ethylpropyl)-1-methyl-1H-benzimidazol-2-amine] | 128 to 129 |
| CCCC(CCC)c1ccc(Cl)c2nc(Nc3cc(C(F)(F)F)c(Cl)cc3Cl)n(C)c12 [Example 113, 4-Chloro-N-[2,4-dichloro-5-(trifluoromethyl)phenyl]-1-methyl-7-(1-propylbutyl)-1H-benzimidazol-2-amine] | 206 to 208 |
| COc1cc(Cl)cc(C)c1Nc1nc2c(Cl)ccc(C(O)(C(C)(C)C)C(C)(C)C)c2n1C [Example 106, 3-{4-Chloro-2-[(4-chloro-2-methoxy-6-methylphenyl)amino]-1-methyl-1H-benzimidazol-7-yl}-2,2,4,4-tetramethylpentan-3-ol] | 246 to 248 |
| CCC(CC)c1ccc(Cl)c2nc(Nc3ccc(Cl)cc3Cl)n(C)c12 [Example 80, 4-Chloro-N-(2,4-dichlorophenyl)-7-(1-ethylpropyl)-1-methyl-1H-benzimidazol-2-amine] | 130 to 132 |
| CCCC(CCC)c1ccc(Cl)c2nc(Nc3ccc(Cl)cc3Cl)n(C)c12 [Example 91, 4-Chloro-N-(2,4-dichlorophenyl)-1-methyl-7-(1-propylbutyl)-1H-benzimidazol-2-amine] | 146 to 148 |
| CCC(CC)c1ccc(Cl)c2nc(Nc3c(Cl)cc(OC(F)(F)F)cc3Cl)n(C)c12 [Example 79, 4-Chloro-N-[2,6-dichloro-4-(trifluoromethoxy)phenyl]-7-(1-ethylpropyl)-1-methyl-1H-benzimidazol-2-amine] | 147 to 149 |
| C/C=C(/CC)c1ccc(Cl)c2nc(Nc3c(C)cc(Cl)cc3OC)n(C)c12 [Example 109, 4-Chloro-N-(4-chloro-2-methoxy-6-methylphenyl)-7-[(1Z)-1-ethylprop-1-en-1-yl]-1-methyl-1H-benzimidazol-2-amine] | 166 to 168 |

More lines, now with the values ahead:

| melting point [°C] | SMILES |
| --- | --- |
| 136 to 137 | CCC(CC)c1ccc(C#N)c2nc(Oc3ccc(Cl)cc3Br)n(C)c12 [Example 150, 2-(2-Bromo-4-chlorophenoxy)-7-(1-ethylpropyl)-1-methyl-1H-benzimidazole-4-carbonitrile] |
| 197 to 198 | CCC(CC)c1ccc(Cl)c2nc(Oc3c(C)cc(Br)cc3C)n(C)c12 [Example 137, 2-(4-Bromo-2,6-dimethylphenoxy)-4-chloro-7-(1-ethylpropyl)-1-methyl-1H-benzimidazole] |
| 168 to 169 | CCC(CC)c1ccc(Cl)c2nc(Oc3c(C)cc(Cl)cc3C)n(C)c12 [Example 125, 4-Chloro-2-(4-chloro-2,6-dimethylphenoxy)-7-(1-ethylpropyl)-1-methyl-1H-benzimidazole] |
| 148 to 150 | CCCC(CCC)c1ccc(Cl)c2nc(Oc3c(Cl)cc(Cl)cc3Cl)n(C)c12 [Example 132, 4-Chloro-1-methyl-7-(1-propylbutyl)-2-(2,4,6-trichlorophenoxy)-1H-benzimidazole] |
| 234 to 236 | CCCC(CCC)c1ccc(Cl)c2nc(Nc3c(C)cc(Br)cc3C)n(C)c12 [Example 115, N-(4-Bromo-2,6-dimethylphenyl)-4-chloro-1-methyl-7-(1-propylbutyl)-1H-benzimidazol-2-amine] |
| 119 to 120 | CCC(CC)c1ccc(C(F)(F)F)c2nc(Oc3ccc(Cl)cc3Br)n(C)c12 [Example 161, 2-(2-Bromo-4-chlorophenoxy)-7-(1-ethylpropyl)-1-methyl-4-(trifluoromethyl)-1H-benzimidazole] |
| 149 to 151 | CCC(CC)c1ccc(C(F)(F)F)c2nc(Oc3c(C)cc(Cl)cc3Cl)n(C)c12 [Example 160, 2-(2,4-Dichloro-6-methylphenoxy)-7-(1-ethylpropyl)-1-methyl-4-(trifluoromethyl)-1H-benzimidazole] |
| 187 to 188 | CCC(CC)c1ccc(C(F)(F)F)c2nc(Nc3c(C)cc(Cl)cc3OC)n(C)c12 [Example 158, N-(4-Chloro-2-methoxy-6-methylphenyl)-7-(1-ethylpropyl)-1-methyl-4-(trifluoromethyl)-1H-benzimidazol-2-amine] |
| 200 to 202 | CCC(CC)c1ccc(Cl)c2nc(Oc3c(Cl)cc(N(C)C)cc3Cl)n(C)c12 [Example 142, 3,5-Dichloro-4-{[4-chloro-7-(1-ethylpropyl)-1-methyl-1H-benzimidazol-2-yl]oxy}-N,N-dimethylaniline] |
| 183 to 184 | CCC(CC)c1ccc(Cl)c2nc(Oc3c(OC)cc(C)nc3C)n(C)c12 [Example 139, 4-Chloro-7-(1-ethylpropyl)-2-[(4-methoxy-2,6-dimethylpyridin-3-yl)oxy]-1-methyl-1H-benzimidazole] |
| 155 to 157 | CCC(CC)c1ccc(Cl)c2nc(Oc3c(Cl)cc(Cl)cc3Cl)n(C)c12 [Example 138, 4-Chloro-7-(1-ethylpropyl)-1-methyl-2-(2,4,6-trichlorophenoxy)-1H-benzimidazole] |
| 175 to 177 | CCC(CC)c1ccc(Cl)c2nc(Oc3c(N(C)C)cc(C)nc3C)n(C)c12 [Example 141, 3-{[4-Chloro-7-(1-ethylpropyl)-1-methyl-1H-benzimidazol-2-yl]oxy}-N,N,2,6-tetramethylpyridin-4-amine] |
| 145 to 147 | CCC(CC)c1ccc(Cl)c2nc(Oc3c(Cl)cc(OC(F)(F)F)cc3Cl)n(C)c12 [Example 140, 4-Chloro-2-[2,6-dichloro-4-(trifluoromethoxy)phenoxy]-7-(1-ethylpropyl)-1-methyl-1H-benzimidazole] |
| 150 to 152 | CCCC(CCC)c1ccc(Cl)c2nc(Oc3ccc4c5c3CCN5C(=O)CC4)n(C)c12 [Example 134, 9-{[4-Chloro-1-methyl-7-(1-propylbutyl)-1H-benzimidazol-2-yl]oxy}-1,2,5,6-tetrahydro-4H-pyrrolo[3,2,1-ij]quinolin-4-one] |
| 203 to 205 | CCCC(CCC)c1ccc(Cl)c2nc(Oc3c(OC)cc(C)cc3OC)n(C)c12 [Example 133, 4-Chloro-2-(2,6-dimethoxy-4-methylphenoxy)-1-methyl-7-(1-propylbutyl)-1H-benzimidazole] |
| 177 to 178 | CCC(CC)c1ccc(C(=O)OC)c2nc(Oc3c(C)cc(Cl)cc3Cl)n(C)c12 [Example 153, Methyl 2-(2,4-dichloro-6-methylphenoxy)-7-(1-ethylpropyl)-1-methyl-1H-benzimidazole-4-carboxylate] |
| 141 to 143 | CCC(CC)c1ccc(CO)c2nc(Oc3c(C)cc(Cl)cc3Cl)n(C)c12 [Example 154, [2-(2,4-Dichloro-6-methylphenoxy)-7-(1-ethylpropyl)-1-methyl-1H-benzimidazol-4-yl]methanol] |
| 155 to 157 | CCCC(CCC)c1ccc(Cl)c2nc(Oc3c(C)cc(Br)cc3C)n(C)c12 [Example 131, 2-(4-Bromo-2,6-dimethylphenoxy)-4-chloro-1-methyl-7-(1-propylbutyl)-1H-benzimidazole] |
| 161 to 162 | CCC(CC)c1ccc(Cl)c2nc(Oc3c(OC)cc(C)cc3OC)n(C)c12 [Example 126, 4-Chloro-2-(2,6-dimethoxy-4-methylphenoxy)-7-(1-ethylpropyl)-1-methyl-1H-benzimidazole] |
| 223 to 225 | CCC(CC)c1ccc(C#N)c2nc(Nc3c(C)cc(Cl)cc3OC)n(C)c12 [Example 152, 2-[(4-Chloro-2-methoxy-6-methylphenyl)amino]-7-(1-ethylpropyl)-1-methyl-1H-benzimidazole-4-carbonitrile] |
| 97 to 99 | CCCC(CCC)c1ccc(Cl)c2nc(Oc3ccc(Br)cc3Cl)n(C)c12 [Example 128, 2-(4-Bromo-2-chlorophenoxy)-4-chloro-1-methyl-7-(1-propylbutyl)-1H-benzimidazole] |
| 192 | CCC(CC)c1ccc(C#N)c2nc(Oc3c(C)cc(Cl)cc3Cl)n(C)c12 [Example 151, 2-(2,4-Dichloro-6-methylphenoxy)-7-(1-ethylpropyl)-1-methyl-1H-benzimidazole-4-carbonitrile] |
